For 4 compounds, TGI results are on record in PubChem BioAssay (NCI).

Structures are written as SMILES.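 These data come from cells grown in 96-well plates and exposed to compound for 48 hours at five concentrations. At the TGI there is no net growth.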

Test systems include DLD-1 colon; DMS 114 small cell lung; HCT-116 colon; HCT-15 colon; HOP-18 NSCLC; KM20L2 colon; MALME-3M melanoma; P388 leukemia; SF-268 CNS; SN12K1 renal; SNB-78 CNS; ACHN renal; DU-145 prostate; M14 melanoma; MDA-MB-231 breast; MDA-MB-435; MDA-N; PC-3 prostate; T-47D breast; TK-10 renal.
Experiment in all cases: NCI tumour cell line growth inhibition, 48 h

`COc1cc(N=Nc2ccc(OC)c(S(=O)(=O)O)c2)c(C)cc1N=Nc1ccc(/C=C/c2ccc(N=[N+]([O-])c3ccc(/C=C/c4ccc(N=Nc5cc(C)c(N=Nc6ccc(OC)c(S(=O)(=O)O)c6)cc5OC)cc4S(=O)(=O)O)c(S(=O)(=O)O)c3)cc2S(=O)(=O)O)c(S(=O)(=O)O)c1`: the TGI in the assay with DLD-1 colon, in the assay on DMS 114 small cell lung, with HCT-116 colon, with HCT-15 colon, in the assay on HOP-18 NSCLC and with KM20L2 colon was greater than 100 µM in each case. Also, the TGI in the assay on MALME-3M melanoma, in the assay on P388 leukemia, in the assay on SF-268 CNS, with SN12K1 renal and with SNB-78 CNS was greater than 100 µM each time.
Take `CCCn1cc2c3c(cccc31)C1C=C(C)CN(C)C1C2` (configuration not stated): the TGI was found to be 54.3 µM with DLD-1 colon; 43.1 µM in the assay with DMS 114 small cell lung; 38.5 µM with HCT-116 colon; 49 µM in the assay on HCT-15 colon; 50.5 µM with HOP-18 NSCLC; 38.8 µM with KM20L2 colon. Besides, the TGI in the assay on MALME-3M melanoma turned out to be 55.5 µM; in the assay with P388 leukemia, 28.5 µM; in the assay on SF-268 CNS it was 47.2 µM; in the assay on SN12K1 renal, 44.1 µM; with SNB-78 CNS, 73.4 µM.
On to `CCOC(=O)c1csc(NC(=O)CCN2CCCC2)n1`, for which the TGI with ACHN renal, with DU-145 prostate, in the assay on HCT-15 colon, in the assay with M14 melanoma, in the assay on MDA-MB-231 breast and in the assay with MDA-MB-435 was greater than 100 µM in each case. The TGI with MDA-N, in the assay with PC-3 prostate, with T-47D breast and in the assay with TK-10 renal was greater than 100 µM in each case.
Regarding `CCOC(=O)c1csc(NC(=O)CCN2CCN(C)CC2)n1`, the TGI in the assay with ACHN renal, in the assay with DU-145 prostate, in the assay with HCT-15 colon, in the assay on M14 melanoma, in the assay with MDA-MB-231 breast and with MDA-MB-435 was greater than 100 µM in each case. Also, the TGI with MDA-N, in the assay with PC-3 prostate, in the assay with T-47D breast and with TK-10 renal was greater than 100 µM in each case.
